Where two headings read alike, the source gives them in different places.
Key:
SRC N1 = SRC N1 (Homo sapiens, UniProt P12931); test: In vitro inhibition of tyrosine kinases; type: biochemical; conditions: read-out: Mean % Inhibition at 1 μM Compound-I; 1 μM (568.9 ng/mL)
[1] = Ocular pharmacokinetics of formulations, Example 20-5; type: in vivo, Dutch Belted rabbits; conditions: Dutch Belted, rabbit, topical
Description: The study design (Table 19-1) consisted of forty-seven (47) Dutch Belted rabbits, each receiving a 30 μL bilateral topical ocular dose. Various suspension formulations of the present application were evaluated and compared against a cyclodextrin-based eye drops solution (Control Group 1, Table 19-1). Formula II or Compound-I was used in the test suspensions as well as the Eye Drops solution.
Ocular sampling occurred one hour following the first daily dose on Day 5 for all groups. Whole blood samples using K2EDTA as an anticoagulant were collected from all animals on Day 5, 1 hour post dose. The whole blood was placed on ice until samples were spun in a centrifuge to separate the plasma. Aqueous humor, conjunctiva, cornea, central retina, peripheral retina, central choroid, and peripheral choroid samples were collected following necropsy. Samples were then frozen at −70° C. or lower. For all Groups 1-15, plasma, central retina, central choroid, and cornea samples were assayed. For Group 5 only, samples were analyzed for Vitamin K3.
An analytical method for the analysis of Vitamin K3 was determined in plasma, central retina, central choroid, and cornea samples from Group 5 animals. A calibration curve prepared in control vitreous humor was used to determine the concentration of Vitamin K3. Internal standard (IS) responses were inconsistent for the central choroid and plasma samples. Thus, positive plasma results were likely due to the reduced IS response.

Chain of SRC N1 (P12931 1-542 isoform P12931-2): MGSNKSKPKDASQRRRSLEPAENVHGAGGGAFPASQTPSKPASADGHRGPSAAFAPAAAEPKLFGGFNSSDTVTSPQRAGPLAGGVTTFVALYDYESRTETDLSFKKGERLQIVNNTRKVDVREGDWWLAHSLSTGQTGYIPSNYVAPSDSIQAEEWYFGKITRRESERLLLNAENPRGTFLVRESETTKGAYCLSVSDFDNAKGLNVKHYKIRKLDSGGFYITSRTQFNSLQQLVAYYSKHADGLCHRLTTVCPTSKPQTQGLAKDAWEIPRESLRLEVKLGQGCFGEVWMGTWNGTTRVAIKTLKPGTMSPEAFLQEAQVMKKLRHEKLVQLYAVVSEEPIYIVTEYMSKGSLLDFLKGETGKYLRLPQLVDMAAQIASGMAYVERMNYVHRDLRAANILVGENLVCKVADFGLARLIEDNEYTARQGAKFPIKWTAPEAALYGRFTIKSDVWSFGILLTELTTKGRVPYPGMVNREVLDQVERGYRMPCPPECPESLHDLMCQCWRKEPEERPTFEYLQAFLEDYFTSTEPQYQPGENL

## Cl.NC(=O)c1c(OCc2c(F)cc(Br)cc2F)nsc1NC(=O)NCCCCN1CCCC1 [Compound-I, 3-[(4-bromo-2,6-difluorophenyl)methoxy]-5-[[[[4-(1-pyrrolidinyl)butyl]amino]carbonyl]amino]-4-isothiazolecarboxamide hydrochloride]
SRC N1
  inhibition at 1 µM: 83%
[1]; central choroid, 1 mg/mL (30 μL per eye, bilateral), Group 7: 1 mg/mL suspension, 50 μm particles, TRIS 0.60%, glycerol 2%, HEC 0.2%, HPMC 0.08%, Vitamin K3 1 μM, pH 6, QD for 4 days, 1 hr post dose on Day 5, read-out: Central Choroid concentration
  concentration at 1 h: 59 nM
[1]; central choroid, 2 mg/mL (30 μL per eye, bilateral), Group 9: 2 mg/mL suspension, 50 μm particles, TRIS 0.60%, glycerol 2%, HEC 0.2%, HPMC 0.08%, Vitamin K3 1 μM, pH 6, QD for 4 days, 1 hr post dose on Day 5, read-out: Central Choroid concentration
  concentration at 1 h: 90.8 nM
[1]; central choroid, 4 mg/mL (30 μL per eye, bilateral), Group 5: 4 mg/mL suspension (Control), 30 μm particles (Table 19-1) / Native (≈50) (Table 19-2), TRIS 0.60%, glycerol 2%, HEC 0.2%, HPMC 0.08%, Vitamin K3 1 μM, pH 6, QD for 4 days, 1 hr post dose on Day 5, read-out: Central Choroid concentration
  concentration at 1 h: 129 nM
[1]; central choroid, 4 mg/mL, 30 μL per eye, pH 6, Group 1: 4 mg/mL Ophthalmic Solution, pH 6 (Control), QD for 4 days, 1 hr post dose on Day 5, read-out: Central Choroid concentration
  concentration at 1 h: 129 nM
[1]; central choroid, 4 mg/mL, 30 μL per eye, pH 6, read-out: Central Choroid concentration
  concentration at 1 h: 151 nM
[1]; central choroid, 30 μL per eye, Group 10: 2 mg/mL suspension, 50 μm particles, TRIS 0.60%, glycerol 2%, HEC 0.2%, HPMC 0.08%, Vitamin K3 1 μM, pH 6, BID for 4 days, 1 hr post dose on Day 5, read-out: Central Choroid concentration
  concentration at 1 h: 116 nM
[1]; central choroid, 30 μL per eye, Group 11: 6 mg/mL suspension, 50 μm particles, TRIS 0.60%, glycerol 2%, HEC 0.2%, HPMC 0.08%, Vitamin K3 1 μM, pH 6, QD for 4 days, 1 hr post dose on Day 5, read-out: Central Choroid concentration
  concentration at 1 h: 148 nM
[1]; central choroid, 30 μL per eye, Group 12: 10 mg/mL suspension, 50 μm particles, TRIS 0.60%, glycerol 2%, HEC 0.2%, HPMC 0.08%, Vitamin K3 1 μM, pH 6, QD for 4 days, 1 hr post dose on Day 5, read-out: Central Choroid concentration
  concentration at 1 h: 199 nM
[1]; central retina, 1 mg/mL (30 μL per eye, bilateral), Group 7: 1 mg/mL suspension, 50 μm particles, TRIS 0.60%, glycerol 2%, HEC 0.2%, HPMC 0.08%, Vitamin K3 1 μM, pH 6, QD for 4 days, 1 hr post dose on Day 5, read-out: Central Retina concentration
  concentration at 1 h: 25.6 nM
[1]; central retina, 2 mg/mL (30 μL per eye, bilateral), Group 9: 2 mg/mL suspension, 50 μm particles, TRIS 0.60%, glycerol 2%, HEC 0.2%, HPMC 0.08%, Vitamin K3 1 μM, pH 6, QD for 4 days, 1 hr post dose on Day 5, read-out: Central Retina concentration
  concentration at 1 h: 63.4 nM
[1]; central retina, 4 mg/mL (30 μL per eye, bilateral), Group 5: 4 mg/mL suspension (Control), 30 μm particles (Table 19-1) / Native (≈50) (Table 19-2), TRIS 0.60%, glycerol 2%, HEC 0.2%, HPMC 0.08%, Vitamin K3 1 μM, pH 6, QD for 4 days, 1 hr post dose on Day 5, read-out: Central Retina concentration
  concentration at 1 h: 44.2 nM
[1]; central retina, 4 mg/mL, 30 μL per eye, pH 6, Group 1: 4 mg/mL Ophthalmic Solution, pH 6 (Control), QD for 4 days, 1 hr post dose on Day 5, read-out: Central Retina concentration
  concentration at 1 h: 55.1 nM
[1]; central retina, 30 μL per eye, Group 11: 6 mg/mL suspension, 50 μm particles, TRIS 0.60%, glycerol 2%, HEC 0.2%, HPMC 0.08%, Vitamin K3 1 μM, pH 6, QD for 4 days, 1 hr post dose on Day 5, read-out: Central Retina concentration
  concentration at 1 h: 91.5 nM
[1]; central retina, 30 μL per eye, Group 12: 10 mg/mL suspension, 50 μm particles, TRIS 0.60%, glycerol 2%, HEC 0.2%, HPMC 0.08%, Vitamin K3 1 μM, pH 6, QD for 4 days, 1 hr post dose on Day 5, read-out: Central Retina concentration
  concentration at 1 h: 114 nM
[1]; cornea, 1 mg/mL (30 μL per eye, bilateral), Group 7: 1 mg/mL suspension, 50 μm particles, TRIS 0.60%, glycerol 2%, HEC 0.2%, HPMC 0.08%, Vitamin K3 1 μM, pH 6, QD for 4 days, 1 hr post dose on Day 5, read-out: Cornea concentration
  concentration at 1 h: 1240 nM
[1]; cornea, 2 mg/mL (30 μL per eye, bilateral), Group 9: 2 mg/mL suspension, 50 μm particles, TRIS 0.60%, glycerol 2%, HEC 0.2%, HPMC 0.08%, Vitamin K3 1 μM, pH 6, QD for 4 days, 1 hr post dose on Day 5, read-out: Cornea concentration
  concentration at 1 h: 2280 nM
[1]; cornea, 4 mg/mL (30 μL per eye, bilateral), Group 5: 4 mg/mL suspension (Control), 30 μm particles (Table 19-1) / Native (≈50) (Table 19-2), TRIS 0.60%, glycerol 2%, HEC 0.2%, HPMC 0.08%, Vitamin K3 1 μM, pH 6, QD for 4 days, 1 hr post dose on Day 5, read-out: Cornea concentration
  concentration at 1 h: 4470 nM
[1]; cornea, 4 mg/mL, 30 μL per eye, pH 6, Group 1: 4 mg/mL Ophthalmic Solution, pH 6 (Control), QD for 4 days, 1 hr post dose on Day 5, read-out: Cornea concentration
  concentration at 1 h: 14300 nM
[1]; cornea, 30 μL per eye, Group 10: 2 mg/mL suspension, 50 μm particles, TRIS 0.60%, glycerol 2%, HEC 0.2%, HPMC 0.08%, Vitamin K3 1 μM, pH 6, BID for 4 days, 1 hr post dose on Day 5, read-out: Cornea concentration
  concentration at 1 h: 5000 nM
[1]; cornea, 30 μL per eye, Group 11: 6 mg/mL suspension, 50 μm particles, TRIS 0.60%, glycerol 2%, HEC 0.2%, HPMC 0.08%, Vitamin K3 1 μM, pH 6, QD for 4 days, 1 hr post dose on Day 5, read-out: Cornea concentration
  concentration at 1 h: 7070 nM
[1]; cornea, 30 μL per eye, Group 12: 10 mg/mL suspension, 50 μm particles, TRIS 0.60%, glycerol 2%, HEC 0.2%, HPMC 0.08%, Vitamin K3 1 μM, pH 6, QD for 4 days, 1 hr post dose on Day 5, read-out: Cornea concentration
  concentration at 1 h: 24700 nM
[1]; plasma, 1 mg/mL (30 μL per eye, bilateral), Group 7: 1 mg/mL suspension, 50 μm particles, TRIS 0.60%, glycerol 2%, HEC 0.2%, HPMC 0.08%, Vitamin K3 1 μM, pH 6, QD for 4 days, 1 hr post dose on Day 5, read-out: Plasma concentration
  concentration at 1 h: 2.18 nM
[1]; plasma, 2 mg/mL (30 μL per eye, bilateral), Group 9: 2 mg/mL suspension, 50 μm particles, TRIS 0.60%, glycerol 2%, HEC 0.2%, HPMC 0.08%, Vitamin K3 1 μM, pH 6, QD for 4 days, 1 hr post dose on Day 5, read-out: Plasma concentration
  concentration at 1 h: 4.05 nM
[1]; plasma, 4 mg/mL (30 μL per eye, bilateral), Group 5: 4 mg/mL suspension (Control), 30 μm particles (Table 19-1) / Native (≈50) (Table 19-2), TRIS 0.60%, glycerol 2%, HEC 0.2%, HPMC 0.08%, Vitamin K3 1 μM, pH 6, QD for 4 days, 1 hr post dose on Day 5, read-out: Plasma concentration
  concentration at 1 h: 6.26 nM
[1]; plasma, 4 mg/mL, 30 μL per eye, pH 6, Group 1: 4 mg/mL Ophthalmic Solution, pH 6 (Control), QD for 4 days, 1 hr post dose on Day 5, read-out: Plasma concentration
  concentration at 1 h: 4.28 nM
[1]; plasma, 30 μL per eye, Group 11: 6 mg/mL suspension, 50 μm particles, TRIS 0.60%, glycerol 2%, HEC 0.2%, HPMC 0.08%, Vitamin K3 1 μM, pH 6, QD for 4 days, 1 hr post dose on Day 5, read-out: Plasma concentration
  concentration at 1 h: 7.72 nM
